Experimental data as given in paper PMC9321231.
Read-outs that look alike come from different tables or passages of the source.

Key:
[1] = tested on: lung carcinoma (A549) cells; assay: Antiproliferative assay (MTT or SRB), A549; format: cell-based, human; settings: for IC50: A-549, read-out: IC50 ± SD, antiproliferative activity; for Calculated Selectivity Index SI: IC50 Balb/3T3 / IC50 A-549
Method: (§1) Cell preparation, an in vitro antiproliferative assay, and MTT and SRB cytotoxic tests were performed according to the literature.

[2] = tested on: human breast adenocarcinoma (MDA-MB-231) cells; assay: Antiproliferative assay (MTT or SRB), MDA-MB-231; format: cell-based; settings: for IC50: MDA-MB-231, read-out: IC50 ± SD, antiproliferative activity; for Calculated Selectivity Index SI: IC50 Balb/3T3 / IC50 MDA-MB-231
Method: as §1

[3] = tested on: human biphenotypic B myelomonocytic leukemia (MV4-11) cells; assay: Antiproliferative assay (MTT or SRB), MV4-11; format: cell-based; settings: for IC50: MV-4-11, read-out: IC50 ± SD, antiproliferative activity; for Calculated Selectivity Index SI: IC50 Balb/3T3 / IC50 MV-4-11
Method: as §1

[4] = tested on: urinary bladder carcinoma (UMUC-3) cells; assay: Antiproliferative assay (MTT or SRB), UMUC-3; format: cell-based, human; settings: for IC50: UMUC-3, read-out: IC50 ± SD, antiproliferative activity; for Calculated Selectivity Index SI: IC50 Balb/3T3 / IC50 UMUC-3
Method: as §1

[5] = tested on: normal mouse fibroblast (BALB/3T3) cells; assay: Antiproliferative assay (MTT or SRB), normal fibroblasts BALB/3T3; format: cell-based; settings: Balb/3T3 normal mouse fibroblasts; read-out: IC50 ± SD, antiproliferative activity
Method: Anticancer drugs are toxic to cancer cells, but also show some toxicity to healthy cells. […] The selectivity indexes for thiazoles 3a–3j against MV4-11 and A-549 cells were in general much higher than for MDA-MB-231 and UMUC-3 cells.
as §1

[6] = target: T1, human neutrophil elastase (HNE) (Homo sapiens, UniProt P08246); assay: Kinetic analysis of the inhibition of human neutrophil elastase (Lineweaver-Burk, Dixon, secondary plots); format: biochemical; settings: for Inhibition Type: Lineweaver-Burk and Dixon analysis; for Kis (enzyme-substrate-inhibitor dissociation constant): secondary plot of intercept versus inhibitor concentration; for Ki: secondary plot of slope versus inhibitor concentration, read-out: Ki (enzyme-inhibitor dissociation constant)
T1 sequence (P08246 30-267): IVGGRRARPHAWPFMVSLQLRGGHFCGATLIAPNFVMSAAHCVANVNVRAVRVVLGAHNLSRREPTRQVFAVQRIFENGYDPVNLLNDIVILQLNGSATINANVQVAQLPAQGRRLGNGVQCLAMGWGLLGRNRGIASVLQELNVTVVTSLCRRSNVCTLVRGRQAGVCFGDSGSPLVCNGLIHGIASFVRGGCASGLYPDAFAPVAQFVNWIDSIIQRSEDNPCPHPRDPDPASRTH
Method: Next, kinetic analysis of the mechanism of inhibition of human neutrophil elastase by thiazoles 3a–3j was determined using double-reciprocal plots of Lineweaver-Burk plots and Dixon analysis.
The first model is one in which the inhibitor binds better to the free enzyme (competitive mechanism), while the second model is one in which the inhibitor binds better to the enzyme-substrate complex (non-competitive mechanism). Next the secondary plots of slope versus concentration of test compounds were plotted to determine the enzyme-inhibitor dissociation constants Ki, and similarly as was used to determine enzyme-substrate-inhibitor dissociation constants Kis, the secondary plots of intercept versus concentration of tested compounds were plotted.
Kinetic studies were conducted in the presence of different concentrations of substrate (5, 25, 50 and 100 µM) and test compounds (in the range of 0–500 nM). The reaction conditions were the same as in the HNE inhibition assay and the reaction was monitored for 10 min at 25 °C with the same Ex an Em wavelengths. By Lineweaver–Burk plots, kinetic values such as the Michaelis–Menten constants and maximum velocity were determined. Next, two inhibition constants for inhibitor binding with free enzyme or enzyme–substrate complex (Ki and Kis) were obtained by plotting the secondary plot of the slopes of the determined straight lines or vertical intercept (1/Vmax) versus inhibitor concentration.

[7] = target: T1, human neutrophil elastase (HNE); assay: Human neutrophil elastase inhibition assay (spectrofluorimetric, MeOSuc-AAPV-AMC substrate)
Method: The inhibition of human neutrophil elastase was carried out by the spectrofluorimetric method using N-methoxysuccinyl-Ala-Ala-Pro-Val-7-amido-4-methylcoumarin (MeOSuc-AAPV-AMC) as substrate.

Structure (SMILES)	IC50 ([1]; Homo sapiens, A549) [µM]	Inhibition Type [6]	Kis (enzyme-substrate-inhibitor dissociation constant) [6] [nM]	Ki [6] [nM]	IC50 ([2]; Homo sapiens) [µM]	melting point [°C]	IC50 [7] [nM]	IC50 ([3]; Homo sapiens, MV4-11) [µM]	IC50 ([4]; Homo sapiens, UMUC3) [µM]	IC50 [1] [µM]	IC50 [2] [µM]	IC50 [3] [µM]	IC50 [4] [µM]	IC50 [5] [µM]	Calculated Selectivity Index SI [1]	Calculated Selectivity Index SI [2]	Calculated Selectivity Index SI [3]	Calculated Selectivity Index SI [4]
N.N.[Cl][Pt][Cl] [cisplatin, reference compound]	–	–	–	–	–	–	–	–	–	4.09 ± 1	19.4 ± 6.8	1.33 ± 0.17	1.73 ± 0.17	8.04 ± 3.16	–	–	–	–
CCC1(CC)C(=O)N(c2ccc(-c3csc(Nc4ccc5[nH]ncc5c4)n3)cc2)C1=O [3g, 1-(4-(2-(1H-Indazol-5-ylamino)thiazol-4-yl)phenyl)-3,3-diethylazetidine-2,4-dione]	5.59 ± 0.16	mixed type I inhibition	171.25	137	6.19 ± 0.42	186 to 188	312 ± 5.76	5.38 ± 0.46	7.89 ± 0.23	–	–	–	–	6.03 ± 0.46	1.08	0.97	1.12	0.76
CCC1(CC)C(=O)N(c2ccc(-c3csc(Nc4cccc5ccccc45)n3)cc2)C1=O [3h, 3,3-Diethyl-1-(4-(2-(naphthalen-1-ylamino)thiazol-4-yl)phenyl)azetidine-2,4-dione]	9.2 ± 1.36	mixed type I inhibition	46.50	33.9	14.6 ± 3.17	69 to 71	44.6 ± 6.04	6.64 ± 1.59	13.3 ± 1.81	–	–	–	–	22.4 ± 8.62	2.44	1.53	3.38	1.69
CCC1(CC)C(=O)N(c2ccc(-c3csc(Nc4cc(C)cc(C)c4)n3)cc2)C1=O [3f, 1-(4-(2-(3,5-Dimethylphenylamino)thiazol-4-yl)phenyl)-3,3-diethylazetidine-2,4-dione]	7.28 ± 1.07	mixed type I inhibition	426.00	144	12.5 ± 1.79	140 to 143	244 ± 19.4	5.89 ± 1.67	19.7 ± 5.49	–	–	–	–	23.8 ± 4.53	3.27	1.90	4.04	1.21
CCC1(CC)C(=O)N(c2ccc(-c3csc(Nc4ccc(Cl)cc4)n3)cc2)C1=O [3a, 1-(4-(2-(4-Chlorophenylamino)thiazol-4-yl)phenyl)-3,3-diethylazetidine-2,4-dione]	7.01 ± 0.47	mixed	426.00	590	9.86 ± 0.94	164 to 166	227 ± 35.1	7.15 ± 0.94	10.7 ± 1.41	–	–	–	–	10.9 ± 1.18	1.55	1.10	1.52	1.02

The next lines start with results.

IC50 ([1]; Homo sapiens, A549) [µM]	Inhibition Type [6]	Kis (enzyme-substrate-inhibitor dissociation constant) [6] [nM]	Ki [6] [nM]	IC50 ([2]; Homo sapiens) [µM]	melting point [°C]	IC50 [7] [nM]	IC50 ([3]; Homo sapiens, MV4-11) [µM]	IC50 ([4]; Homo sapiens, UMUC3) [µM]	Structure (SMILES)	IC50 [1] [µM]	IC50 [2] [µM]	IC50 [3] [µM]	IC50 [4] [µM]	IC50 [5] [µM]	Calculated Selectivity Index SI [1]	Calculated Selectivity Index SI [2]	Calculated Selectivity Index SI [3]	Calculated Selectivity Index SI [4]
15.3 ± 4.98	mixed	49.33	138	72.1 ± 26	162 to 164	110 ± 4.41	5.4 ± 2.06	62.7 ± 9.98	CCC1(CC)C(=O)N(c2ccc(-c3csc(Nc4c(F)c(F)c(F)c(F)c4F)n3)cc2)C1=O [3d, 3,3-Diethyl-1-(4-(2-(perfluorophenylamino)thiazol-4-yl)phenyl)azetidine-2,4-dione]	–	–	–	–	46.5 ± 4.99	3.04	0.64	8.61	0.74
7.31 ± 0.46	mixed	65.50	72.2	9.34 ± 1.12	155 to 157	176 ± 13.5	5.92 ± 1.71	9.07 ± 0.49	CCC1(CC)C(=O)N(c2ccc(-c3csc(Nc4ccc(F)cc4)n3)cc2)C1=O [3b, 3,3-Diethyl-1-(4-(2-(4-fluorophenylamino)thiazol-4-yl)phenyl)azetidine-2,4-dione]	–	–	–	–	11.5 ± 1.47	1.57	1.23	1.94	1.27
6.21 ± 0.73	mixed	38.00	209	14.3 ± 3.45	78 to 80	249 ± 32.8	5.11 ± 1.42	25.3 ± 9.94	CCC1(CC)C(=O)N(c2ccc(-c3csc(Nc4c(Cl)cc(Cl)cc4Cl)n3)cc2)C1=O [3j, 3,3-Diethyl-1-(4-(2-(2,4,6-trichlorophenylamino)thiazol-4-yl)phenyl)azetidine-2,4-dione]	–	–	–	–	34.5 ± 22.7	5.55	2.41	6.75	1.36
6.42 ± 0.72	mixed	425.00	597	11.7 ± 3.7	170 to 172	168 ± 18.1	5.47 ± 1.52	10.7 ± 3.05	CCC1(CC)C(=O)N(c2ccc(-c3csc(Nc4ccc(C(F)(F)F)cc4)n3)cc2)C1=O [3i, 3,3-Diethyl-1-(4-(2-(4-(trifluoromethyl)phenylamino)thiazol-4-yl)phenyl)-azetidine-2,4-dione]	–	–	–	–	10.1 ± 0.87	1.58	0.87	1.85	0.95
